Like-named read-outs stand apart in the source and are kept apart here.
What was measured:
Male Sprague Dawley rats = assay: Continuous Slow Transvesicular Infusion (CSTI) rat model; type: in vivo; parameters: key: F: Produced an increase in bladder capacity in rats relative to baseline capacity; conditions: intragastric administration, vs baseline capacity
Method: The effects of compounds on the micturition reflex were assessed in the “distension-induced rhythmic contraction” (DIRC), as described in previous publications (e.g. Maggi et al, 1987; Morikawa et al, 1992), and Continuous Slow Transvesicular Infusion (CSTI) models in rats. Male Sprague Dawley rats weighing approximately 300 g were used for the study. Rats were anaesthetized with pentobarbitone sodium (50 mg/kg, i.p). Through a median abdominal incision, bladder was exposed and a polyethylene cannula (PE 50) was introduced into the bladder through a small cut on the dome of the bladder and the cannula was secured with a purse string suture. The other end of the cannula was exteriorized subcutaneously at the dorsal neck area. Similarly, another cannula (PE 50) was introduced into the stomach through a paramedian abdominal incision with the free end exteriorized subcutaneously to the neck region. The surgical wounds were closed with silk 4-0 suture and the animal was allowed to recover with appropriate post surgical care. On the following day, the animal was placed in a rat restrainer. The open end of the bladder-cannula was connected to a pressure transducer as well as infusion pump through a three-way stopcock. The bladder voiding cycles were initiated by continuous infusion of normal saline at the rate of 100 μl/min. The repetitive voiding contractions were recorded on a Power Lab on-line data acquisition software. After recording the basal voiding pattern for an hour, the test drug or vehicle was administered directly into stomach through the intragastric catheter and the voiding cycles were monitored for 5 hours. Micturition pressure and frequency were calculated before and after the treatment (at every 30 min interval) for each animal. Bladder capacity was calculated from the micturition frequency, based on the constant infusion of 100 ul/min. The effect of the test drug was expressed as a percentage of basal, pre-drug bladder capacity. WAY 100635 was used as positive control for comparison.

[1] = system: Female Sprague Dawley rats; assay: Distension-induced rhythmic contraction (DIRC) model of the micturition reflex; type: in vivo, rat; parameters: key: E: Produced a significant increase in contraction interval relative to pre-drug interval; conditions: urethane-anesthetized female rats, i.v. or i.p.; vs pre-drug interval
Method: The effects of compounds on the micturition reflex were assessed in the “distension-induced rhythmic contraction” (DIRC), as described in previous publications (e.g. Maggi et al, 1987; Morikawa et al, 1992), and Continuous Slow Transvesicular Infusion (CSTI) models in rats. Female Sprague Dawley rats weighing approximately 300 g were anesthetized with subcutaneous urethane (1.2 g/kg). The trachea was cannulated with PE240 tubing to provide a clear airway throughout the experiment. A midline abdominal incision was made and the left and right ureters were isolated. The ureters were ligated distally (to prevent escape of fluids from the bladder) and cannulated proximally with PE10 tubing. The incision was closed using 4-0 silk sutures, leaving the PE10 lines routed to the exterior for the elimination of urine. The bladder was canulated via the transurethral route using PE50 tubing inserted 2.5 cm beyond the urethral opening. This cannula was secured to the tail using tape and connected to a pressure transducer. To prevent leakage from the bladder, the cannula was tied tightly to the exterior urethral opening using 4-0 silk. To initiate the micturition reflex, the bladder was first emptied by applying pressure to the lower abdomen, and then filled with normal saline in […] (maximum=2 ml) until spontaneous bladder contractions occurred (typically 20-40 mmHg at a rate of one contraction every 2 to 3 minutes. Once a regular rhythm was established, vehicle (saline) or Test Compounds were administered i.v. or i.p. to explore their effects on bladder activity. The 5-HT1A antagonist WAY-100635 was given as a positive control. Data were expressed as contraction interval (in seconds) before drug application (basal), or after the application of vehicle or test article.

G4F-7 cells = conditions: cited from earlier work
[2] = biological target: T1, human Alpha-1a Adrenergic receptor (Homo sapiens, UniProt P35348); assay: Binding affinity at cloned human Alpha-1a Adrenergic receptor; conditions: read-out: hALPHA-1a Ki
T1 construct: expressed in transfected cells
T1 sequence (P35348 1-466): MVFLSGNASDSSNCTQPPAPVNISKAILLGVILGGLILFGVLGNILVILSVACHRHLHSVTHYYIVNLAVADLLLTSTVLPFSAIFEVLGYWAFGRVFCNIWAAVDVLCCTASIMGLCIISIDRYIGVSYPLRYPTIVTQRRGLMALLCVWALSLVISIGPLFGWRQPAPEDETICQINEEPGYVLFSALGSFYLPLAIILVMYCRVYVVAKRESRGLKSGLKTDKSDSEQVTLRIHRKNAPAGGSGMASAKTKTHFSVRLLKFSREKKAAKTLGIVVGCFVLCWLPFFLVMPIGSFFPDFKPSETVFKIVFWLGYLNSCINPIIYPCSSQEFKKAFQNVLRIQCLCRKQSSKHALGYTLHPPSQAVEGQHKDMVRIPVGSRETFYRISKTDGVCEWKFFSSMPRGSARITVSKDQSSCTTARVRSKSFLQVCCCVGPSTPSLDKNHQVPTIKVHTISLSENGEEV

rat MCH-1 [3] = biological target: T2, rat MCH-1 (Rattus norvegicus, UniProt P97639); assay: Radioligand binding assay at cloned rat MCH1 receptor ([3H] Compound A); parameters: host or cells: Peak rapid 293 (Peakr293) cells, transient calcium phosphate transfection, membranes; conditions: cloned rat MCH1 receptor, 0.08 nM [3H] Compound A, read-out: Ki (nM) rMCH1
T2 sequence (P97639 whole entry): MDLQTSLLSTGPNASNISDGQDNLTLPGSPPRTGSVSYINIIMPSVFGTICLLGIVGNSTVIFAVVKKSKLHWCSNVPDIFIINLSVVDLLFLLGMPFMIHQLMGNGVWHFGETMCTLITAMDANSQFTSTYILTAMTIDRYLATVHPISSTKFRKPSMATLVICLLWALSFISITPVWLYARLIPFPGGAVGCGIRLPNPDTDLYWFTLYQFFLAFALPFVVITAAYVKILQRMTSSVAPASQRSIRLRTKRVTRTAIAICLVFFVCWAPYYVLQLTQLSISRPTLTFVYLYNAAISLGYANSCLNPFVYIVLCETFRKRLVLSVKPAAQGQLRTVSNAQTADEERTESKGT

[4] = biological target: human Dopamine D2 receptor (Homo sapiens, UniProt P14416); assay: Binding affinity at cloned human Dopamine D2 receptor; conditions: read-out: hD2 Ki
human Dopamine D2 receptor, sequence (P14416 whole entry): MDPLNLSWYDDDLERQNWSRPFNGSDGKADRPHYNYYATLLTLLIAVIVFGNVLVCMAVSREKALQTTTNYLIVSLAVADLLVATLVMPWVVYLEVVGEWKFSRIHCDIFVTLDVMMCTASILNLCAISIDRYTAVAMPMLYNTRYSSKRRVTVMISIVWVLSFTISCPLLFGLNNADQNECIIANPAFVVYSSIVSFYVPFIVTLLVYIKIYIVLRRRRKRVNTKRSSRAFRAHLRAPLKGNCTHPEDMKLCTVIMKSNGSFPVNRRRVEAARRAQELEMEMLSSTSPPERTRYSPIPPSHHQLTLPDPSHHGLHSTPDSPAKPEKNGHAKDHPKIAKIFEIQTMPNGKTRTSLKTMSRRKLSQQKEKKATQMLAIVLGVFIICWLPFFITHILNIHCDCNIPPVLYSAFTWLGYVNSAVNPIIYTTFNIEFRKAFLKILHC

[5] = biological target: T3, human Histamine H1 receptor (Homo sapiens, UniProt P35367); assay: Binding affinity at cloned human Histamine H1 receptor; conditions: read-out: hH1 Ki
T3 construct: expressed in transfected cells
T3 sequence (P35367 whole entry): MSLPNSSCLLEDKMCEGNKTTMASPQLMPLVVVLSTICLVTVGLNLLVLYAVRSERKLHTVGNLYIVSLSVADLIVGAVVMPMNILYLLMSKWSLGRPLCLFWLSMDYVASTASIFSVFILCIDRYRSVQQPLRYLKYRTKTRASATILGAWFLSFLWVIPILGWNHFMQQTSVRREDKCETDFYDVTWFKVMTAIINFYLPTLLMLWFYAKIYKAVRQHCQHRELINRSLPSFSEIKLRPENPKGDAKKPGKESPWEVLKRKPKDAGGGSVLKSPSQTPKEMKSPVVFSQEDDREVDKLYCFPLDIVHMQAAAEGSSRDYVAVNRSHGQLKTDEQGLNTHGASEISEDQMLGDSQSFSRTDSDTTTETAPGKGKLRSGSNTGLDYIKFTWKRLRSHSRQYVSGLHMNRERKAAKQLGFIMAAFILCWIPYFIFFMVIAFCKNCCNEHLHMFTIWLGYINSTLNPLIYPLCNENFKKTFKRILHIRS

[6] = system: food intake induced by the intracerebroventricular application of MCH; conditions: in vivo; cited from earlier work
rat MCH-1 [7] = biological target: T2, rat MCH-1; conditions: cited from earlier work
human MCH-1 = human MCH-1 (Homo sapiens, UniProt Q99705); conditions: cited from earlier work
human MCH-1, sequence (Q99705 whole entry): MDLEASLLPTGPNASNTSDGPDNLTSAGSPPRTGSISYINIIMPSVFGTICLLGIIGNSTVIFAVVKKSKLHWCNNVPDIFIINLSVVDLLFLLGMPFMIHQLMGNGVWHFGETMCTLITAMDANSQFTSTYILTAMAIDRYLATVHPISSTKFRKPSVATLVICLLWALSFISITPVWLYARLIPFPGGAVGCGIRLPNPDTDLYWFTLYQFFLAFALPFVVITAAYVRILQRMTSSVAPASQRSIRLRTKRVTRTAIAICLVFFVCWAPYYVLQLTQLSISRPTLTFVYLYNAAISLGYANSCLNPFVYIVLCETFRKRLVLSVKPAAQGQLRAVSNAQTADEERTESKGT

## CCn1c2ccccc2c2cc(CN3CCC(c4cccc(NC(=O)C(C)C)c4)CC3)ccc21 [Example 99]
Male Sprague Dawley rats
  CSTI (bladder capacity): F
[1]
  DIRC (contraction interval): E

## COc1ccc2[nH]c(-c3ccccc3)c(CCCN3CCC(c4cccc(NC(=O)C(C)C)c4)CC3)c2c1 [Example 91]
Male Sprague Dawley rats
  CSTI (bladder capacity): F
[1]
  DIRC (contraction interval): E

## CC(=O)c1cccc(O[C@H](CCN2CCC(c3cccc(NC(=O)C(C)C)c3)CC2)c2ccccc2)c1 [Example 116]
Male Sprague Dawley rats
  CSTI (bladder capacity): F
[1]
  DIRC (contraction interval): E

## rat ANF
G4F-7 cells; mouse melanoma cells, read-out: Ki (inhibition of [Phe13,Tyr19]-MCH binding)
  Ki: 116 nM

## CC(=O)Nc1cccc(C2CCN(CCCNC(=O)N3C(=O)O[C@H](C)[C@@H]3c3ccc(F)c(F)c3)CC2)c1 [Example 75]
[2]
  Ki: 2470 nM
Rat MCH-1 [3]; membranes from Peakr293 cells
  Ki: 11.8 nM
[4]
  Ki: 19000 nM
[5]
  Ki: 2840 nM

## CC(C)C(=O)Nc1cccc(C2CCN(CCC(OC(=O)c3cccc4ccccc34)c3ccccc3)CC2)c1 (stereo in doubt) [Example 69, (1S)-3-{4-[3-(ISOBUTYRYLAMINO)PHENYL]-1-PIPERIDINYL}-1-PHENYLPROPYL 1-NAPHTHOATE]
[2]
  Ki: 232 nM
Rat MCH-1 [3]; membranes from Peakr293 cells
  Ki: 32.5 nM
[4]
  Ki: 46.6 nM
[5]
  Ki: > 50000 nM

## COC(CCN1CCC(c2cccc(NC(=O)C(C)C)c2)CC1)c1ccccc1 (stereo not shown) [Example 37]
[4]
  Ki: 34900 nM

## Cc1ccc(C(=O)CCCN2CCC(c3cccc(NC(=O)C(C)C)c3)CC2)cc1C [Example 2]
Male Sprague Dawley rats
  CSTI (bladder capacity): F
[1]
  DIRC (contraction interval): E

## [Phe^13, Tyr^19]-MCH
G4F-7 cells; radioiodinated ligand, G4F-7 cells
  Kd: 0.118 nM

## Cc1onc(-c2c(Cl)cccc2Cl)c1C(=O)NCCCCCN1CCC(c2cccc(NC(=O)C(C)C)c2)CC1 [Example 106]
Male Sprague Dawley rats
  CSTI (bladder capacity): F
[1]
  DIRC (contraction interval): E

## CC(C)C(=O)Nc1cccc(C2CCN(CCCC(=O)c3ccc(Cl)cc3)CC2)c1 [Example 10]
Male Sprague Dawley rats
  CSTI (bladder capacity): F
[1]
  DIRC (contraction interval): E

## CN(C)CC1CCc2cc(NC(=O)c3ccc(-c4ccc(F)cc4)cc3)ccc2C1 (stereo not shown) [Example T-226296, T-226296]
[6]
  food intake induced by intracerebroventricular MCH: inhibit food intake
Rat MCH-1 [7]
  affinity for the MCH-1 receptor: 5 to 9 nM
Human MCH-1
  affinity for the MCH-1 receptor: 5 to 9 nM

## CC(C)C(=O)Nc1cccc(C2CCN(Cc3cccc4c3ccn4-c3ccc(Cl)c(Cl)c3)CC2)c1 [Example 864]
Rat MCH-1 [3]; Peakr293 cell membranes
  Ki: 292 nM

## CC(C)C(=O)Nc1cccc(C2CCN(CCCC(=O)c3ccc(Br)cc3)CC2)c1 [Example 947]
Rat MCH-1 [3]; Peakr293 cell membranes
  Ki: 4.3 nM

## COc1ccc(OCCCCN2CCC(c3cccc(NC(=O)C(C)C)c3)CC2)cc1 [Example 377]
Rat MCH-1 [3]; membranes from Peakr293 cells
  Ki: 712 nM

## CC(C)C(=O)Nc1cccc(C2CCN(CCCc3c(-c4ccccc4Br)n(C)c4ccccc34)CC2)c1 [Example 794]
Rat MCH-1 [3]; Peakr293 cell membranes
  Ki: 4.9 nM

## Cc1ccc2[nH]c(-c3ccc(F)cc3)c(CCCN3CCC(c4cccc(NC(=O)C(C)C)c4)CC3)c2c1 [Example 718]
Rat MCH-1 [3]; Peakr293 cell membranes
  Ki: 3.4 nM

## CCCC(=O)Nc1ccc(C2CCN(Cc3cn(-c4ccc(C)cc4)c4ccccc34)CC2)cc1 [Example 423]
Rat MCH-1 [3]; Peakr293 cell membranes
  Ki: 405 nM

## CCCS(=O)(=O)N[C@@H](CCN1CCC(c2cccc(NC(=O)C(C)C)c2)CC1)c1ccccc1 [Example 601]
Rat MCH-1 [3]; Peakr293 cell membranes
  Ki: 144 nM

## CC(C)C(=O)Nc1cccc(C2CCN(Cc3ccc(Oc4ccc(Cl)c(Cl)c4)cc3)CC2)c1 [Example 112]
Rat MCH-1 [3]; membranes from Peakr293 cells
  Ki: 6.1 nM

## CC(C)C(=O)Nc1cccc(C2CCN(CCCc3c(-c4ccccc4Cl)n(-c4ccccc4)c4ccccc34)CC2)c1 [Example 734]
Rat MCH-1 [3]; Peakr293 cell membranes
  Ki: 28.6 nM

## CC(C)C(=O)Nc1cccc(C2CCN(Cc3cn(-c4ccccc4C(F)(F)F)c4ccccc34)CC2)c1 [Example 448]
Rat MCH-1 [3]; membranes from Peakr293 cells
  Ki: 61 nM
Rat MCH-1 [3]; Peakr293 cell membranes
  Ki: 61 nM

## CC(C)C(=O)Nc1cccc(C2CCN(CCCc3c(-c4ccc(Br)cc4)[nH]c4ccc(OC(F)(F)F)cc34)CC2)c1 [Example 754]
Rat MCH-1 [3]; Peakr293 cell membranes
  Ki: 49.2 nM

## COc1ccc2[nH]c(-c3cccc(Cl)c3)c(CCCN3CCC(c4cccc(NC(=O)C(C)C)c4)CC3)c2c1 [Example 726]
Rat MCH-1 [3]; Peakr293 cell membranes
  Ki: 5 nM

## CC(C)CCOc1ccc(CN2CCC(c3cccc(NC(=O)C(C)C)c3)CC2)c2ccccc12 [Example 195]
Rat MCH-1 [3]; membranes from Peakr293 cells
  Ki: 106 nM

## CC(C)C(=O)Nc1cccc(C2CCN(CCCc3c(-c4ccc(I)cc4)n(-c4ccccc4)c4ccccc34)CC2)c1 [Example 747]
Rat MCH-1 [3]; Peakr293 cell membranes
  Ki: 161 nM

## CC(C)C(=O)Nc1cccc(C2CCN(CCC(Oc3ccc(F)c(F)c3)c3ccc(Cl)cc3)CC2)c1 (stereo not shown) [Example 125]
Rat MCH-1 [3]; membranes from Peakr293 cells
  Ki: 5.4 nM

## CC(C)C(=O)Nc1cccc(C2CCN(Cc3cn(S(=O)(=O)c4ccccc4)c4ccccc34)CC2)c1 [Example 227]
Rat MCH-1 [3]; membranes from Peakr293 cells
  Ki: 262 nM

## CC(C)C(=O)Nc1cccc(C2CCN(CC[C@H](Oc3ccc(-c4ccccc4)cc3)c3ccccc3)CC2)c1 [Example 78]
[5]
  Ki: > 50000 nM

## CC(C)C(=O)Nc1cccc(C2CCN(CCc3c[nH]c4ccc(OC(F)(F)F)cc34)CC2)c1 [Example 412]
Rat MCH-1 [3]; Peakr293 cell membranes
  Ki: 27 nM

## CC(C)C(=O)Nc1cccc(C2CCN(CCC(c3ccccc3)c3ccccc3)CC2)c1 [Example 802]
Rat MCH-1 [3]; Peakr293 cell membranes
  Ki: 36.7 nM

## CC(C)C(=O)Nc1cccc(C2CCN(Cc3cccc4c3ccn4-c3ccccc3F)CC2)c1 [Example 871]
Rat MCH-1 [3]; Peakr293 cell membranes
  Ki: 252 nM

## CC(C)C(=O)Nc1cccc(C2CCN(Cc3cccc4c3ccn4-c3ccccn3)CC2)c1 [Example 870]
Rat MCH-1 [3]; Peakr293 cell membranes
  Ki: 167 nM

## CC(C)C(=O)Nc1cccc(C2CCN(CCc3c(-c4ccccc4)[nH]c4c3ccc3ccccc34)CC2)c1 [Example 387]
Rat MCH-1 [3]; membranes from Peakr293 cells
  Ki: 19.7 nM

Reference: patent publication US6727264B1 (Synaptic Pharmaceutical Corporation, priority 2001, dated 2004)
